Data as given in patent publication US10058587B2, “Peptide composition for cancer treatment by inhibiting TRPV6 calcium channel activity” (priority 2008, dated 2018).
Where no end group is shown, it is not given here.

Tests used:
[1] = system: MCF 7 breast cancer cell line; assay: Induction of apoptosis (APO-ONE caspase 3/7) and cell viability (CellTiter Blue); format: cell-based, human
Procedure: MCF-7, MDA-MB-231, MDA-MB-415, MDA-MB-468 were grown in DMEM modified with 10% (v/v) fetal bovine serum, 2 mM L-glutamine and 50 ug/mL each of penicillin and streptomycin.
(§1) The levels of apoptotic induction and cell viability were determined by multiplexing the measurements for single samples. CellTiter Blue and APO-ONE assay systems from Promega allows the determination of cell viability correlated to cell number, and induction of apoptosis. This protocol uses a fluorgenic peptide that contains a peptide recognition-sequence for caspase 3 and caspase 7, […] proteolytic enzymes of the apoptosis cascade. The CellTiter Blue reagent was added to wells in a 96-well plate containing cells under test, immediately after addition of peptide solution or vehicle. About 5000 cells were plated into the wells the day before. At the chosen time (Day 1, Day 2 etc.) the fluorescence was measured at 590 nm (emission) after excitation at 560 nm. The caspase 3/7 activity was measured (485 nm Ex/527 nm Em) in the same wells after adding 120 uL of the Apo-ONE reagent, freeze fracturing at −80° C. for 1 hr, and incubating for 1 hr at room temperature.
(§2) For this work, the concentrations of SorC13 and SorC27 used were 0 uM, 1 uM, 10 uM and 100 uM. The experiments extended over a 5 to 7 day period. All measurements were done in quadruplicate with both a blank (no cells) and control (vehicle, no peptide) used to correct the test measurements. The time-response data, and the dose-response data were plotted as means±standard error of the mean. Any statistical comparisons were done with the Student's t-test or by ANOVA analysis over the dose course. The level of statistical significance was considered to be the 95% confidence interval (i.e., p≤0.05).
To benchmark the effect of both C-type peptides to the gold-standard treatment presently used against breast cancer (Paclitaxel), SorC13, SorC27 and Paclitaxel (10 uM) were compared. Both the APO-ONE assay (Promega) and the CellTiter Blue were used on the panel of breast cancer cell lines. The data were compared directly in terms of mean response and tested for significant difference.

[2] = system: MCF 10A non-cancerous breast cell line; assay: as above; format: cell-based, human; set-up: key to Decline in cell viability: cell viability decreased (+); or not (−)
Procedure: (§3) MCF-10A, MCF-12A were cultured in 50% DMEM plus 50% Ham's F12 modified with 2 mM L-glutamine, 1 mM sodium pyruvate, 0.01 mg/mL bovine insulin, 500 ng/mL hydrocortisone, 50 ug/mL of penicillin and streptomycin. The combined medium was supplemented with 5% (v/v) fetal bovine serum.
as §1, §2

[3] = system: MCF 12A non-cancerous breast cell line; assay: as above; format: cell-based, human; set-up: key to Decline in cell viability: cell viability decreased (+); or not (−)
Procedure: as §3, §1, §2

[4] = system: SKOV3 ovarian cancer cell line; assay: as above; format: cell-based, human; set-up: key to Decline in cell viability: decreased (+); or not (−); settings: for apoptosis (treatment:control ratio) compared with CAT cocktail: CAT = 10 uM Paclitaxel, 20 mM carboplatin
Procedure: SKOV-3 was cultured in […] medium supplemented with 1.5 mM L-glutamine, 2.2 g/L sodium bicarbonate and 10% (v/v) fetal bovine serum.
as §1, §2
To compare the effect of the two SorC-peptides against the gold-standard treatment for ovarian cancers SorC13 or SorC27 was compared to treatment with a carboplatin and taxol (CAT) cocktail (10 uM Paclitaxel, 20 mM carboplatin) using the APO-ONE assay, which measures the combined activities of caspase 3 and caspase 7. Because of the mixed treatment (CAT), the effects were compared in terms of the ratio of treatment:control. If no effect was noted then the ratio=1. Comparisons of the treatment:control ratios were examined with the Student's t-test at a confidence level of 95%. Ratios of larger than a value of unity indicated a positive effect. The effects are illustrated in FIG. 5.

PC3 and LnCaP clone FGC = assay: Apoptosis and cell viability in prostate cancer cell lines (Example 10); format: cell-based, human; settings: 0, 10 and 100 uM, 5 to 7 days
Procedure: (§4) For this work, the concentrations of SorC13 and SorC27 used are 0 uM, 10 uM and 100 uM. The experiments extend over a 5 to 7 day period. All measurements are done in quadruplicate with both a blank (no cells) and control (vehicle, no peptide) used to correct the test measurements. The time-response data, and the dose-response data are plotted as means±standard error of the mean.
The cell lines PC3 (from ATCC CRL-1435) and LnCaP clone FGC (from ATCC CRL-1740), obtained from the American Type Culture Collection (ATCC) and grown under the recommended conditions and in culture media recommended by ATCC. The cell lines are cultured under sterile conditions at 37° C., in a humidified 5% CO2 atmosphere.
(§5) Induction of apoptosis and attendant decrease is observed in cell viability in the cancer cell lines. From the large increases in the activities of the caspase3/7 activity, it is clear that there is a time dependent effect and a dose dependent effect on the induction of apoptosis.

MV-4-11 = assay: Apoptosis and cell viability in AML cell line (Example 13); format: cell-based, human; settings: 0, 10 and 100 uM, 5 to 7 days
Procedure: as §4
The cell line MV-4-11 (from ATCC […]) is grown under the recommended conditions and in culture media recommended by ATCC. The cell lines were cultured under sterile conditions at 37° C., in a humidified 5% CO2 atmosphere.
as §5

mealworm larvae = assay: Mealworm larva paralytic bioassay; format: in vivo

KEFLHPSKVDLPR [SorC13, KEFLHPSKVDLPR]
Apoptosis Index (1 = no effect) ([1]; SorC13 1 uM): 1.2
Apoptosis Index (1 = no effect) ([1]; SorC13 10 uM): 1.1
Apoptosis Index (1 = no effect) ([1]; SorC13 100 uM): 2.4
Apoptosis Index (1 = no effect) ([2]; SorC13 100 uM): 1.0
Decline in cell viability ([2]; SorC13 100 uM): −
Apoptosis Index (1 = no effect) ([3]; SorC13 100 uM): 1.0
Decline in cell viability ([3]; SorC13 100 uM): −
apoptosis (treatment:control ratio) compared with CAT cocktail [4]: produced earlier and more intense apoptosis cascade than the CAT cocktail
Apoptosis Index (1 = no effect) ([4]; Day 4, SorC13 100 uM): 2.2
Apoptosis Index (1 = no effect) ([4]; Day 5, SorC13 100 uM): 2.7
Decline in cell viability ([4]; Day 5, SorC13 100 uM): +
induction of apoptosis and cell viability (PC3 and LnCaP clone FGC): induces apoptosis and decreases cell viability
induction of apoptosis and cell viability (MV-4-11): induces apoptosis and decreases cell viability
Physiol. effects in vivo (mealworm larvae); 5 mg/kg (mealworm larvae): Not paralytic

EGKLSSNDTEGGLCKEFLHPSKVDLPR [SorC27]
Apoptosis Index (1 = no effect) ([1]; Day 2, SorC27 10 μM): 1.0
Apoptosis Index (1 = no effect) ([1]; Day 2, SorC27 100 μM): 2.8
Apoptosis Index (1 = no effect) ([1]; Day 3, SorC27 10 μM): 2.9
Apoptosis Index (1 = no effect) ([1]; Day 3, SorC27 100 μM): 4.6
induction of apoptosis compared with Paclitaxel (10 uM) ([1]; SorC27 10 uM): more effective at inducing a faster and more intense apoptotic cascade than Paclitaxel
Apoptosis Index (1 = no effect) ([2]; SorC27 100 μM): 1.0
Decline in cell viability ([2]; SorC27 100 μM): −
Apoptosis Index (1 = no effect) ([3]; SorC27 100 μM): 1.0
Decline in cell viability ([3]; SorC27 100 μM): −
apoptosis (treatment:control ratio) compared with CAT cocktail [4]: produced apoptosis sooner and more intensely than the CAT cocktail
Apoptosis Index (1 = no effect) ([4]; Day 2, SorC27 10 uM): 2.7
Apoptosis Index (1 = no effect) ([4]; Day 2, SorC27 100 uM): 1.5
Apoptosis Index (1 = no effect) ([4]; Day 3, SorC27 1 uM): 1.7
Apoptosis Index (1 = no effect) ([4]; Day 3, SorC27 10 uM): 2.4
Apoptosis Index (1 = no effect) ([4]; Day 3, SorC27 100 uM): 2.7
Decline in cell viability ([4]; SorC27): +
induction of apoptosis and cell viability (PC3 and LnCaP clone FGC): induces apoptosis and decreases cell viability
induction of apoptosis and cell viability (MV-4-11): induces apoptosis and decreases cell viability
Physiol. effects in vivo (mealworm larvae); 5 mg/kg (mealworm larvae): Not paralytic
